Results on 5 compounds are retold here after patent US20190192699A1, “NUCLEAR IMAGING AND RADIOTHERAPEUTICS AGENTS TARGETING CARBONIC ANHYDRASE IX AND USES THEREOF” (THE JOHNS HOPKINS UNIVERSITY, priority 2016, published 2019).

Assay [1] concerns the target T1, CAIX (Homo sapiens, UniProt Q16790). The assay is described as follows: Competitive fluorescence polarization assay for [113/115In]XYIMSR-01. Format: binding. On the set-up: purchased R&D Systems. Particulars: for IC50: 100 nM CAIX, 80 nM FITC-labeled 8, read-out: IC50, inhibition of fluorescence polarization of FITC labeled 8; for binding affinity to CAIX (in words): competitive fluorescence polarization. From the text: (§1) General Procedures. Solvents and chemicals obtained from commercial sources were of analytical grade or better and used without further purification. Fmoc-protected azidolysine, HBTU, and N-α-fmoc-L-aspartic acid α-tert-butyl ester were purchased from Chem Impex International, Inc. (Wooddale, Ill.). Carrier-free [^111In]InCl3 was purchased from MDS Nordion (Ottawa, ON, Canada). DOTA-NHS-ester (1,4,7,10-tetraazacyclododecane-1,4,7,10-tetraacetic acid mono N-hydroxysuccinimide ester) was purchased from Macrocyclics, Inc. (Dallas, Tex.). Indium (III) nitrate, triethylsilane (Et3SiH), N,N-diisopropylethylamine (DIEA), triethylamine (TEA), piperidine, 4,4-bis(4-hydroxyphenyl)valeric acid, copper iodide (CuI), and tris[(1-benzyl-1H-1,2,3-triazol-4-yl)methyl]amine (TBTA) were purchased from Sigma-Aldrich (Saint Louis, Mo.). Pre-loaded O-bis-(aminoethyl)ethylene glycol on trityl resin was purchased from EMD Millipore (Billerica, Mass.). Flash chromatography was performed using MP SiliTech 32-63 D 60 Å silica gel purchased from Bodman (Aston, Pa.). Recombinant human CAIX was purchased from R&D Systems (Minneapolis, Minn.). 1H NMR spectra were recorded on a Bruker Ultrashield 500 MHz spectrometer. Chemical shifts (δ) were reported in ppm downfield by reference to proton resonances resulting from incomplete deuteration of the NMR solvent. ESI mass spectra were obtained on a Bruker Daltonics Esquire 3000 Plus spectrometer (Billerica, Mass.).
Competitive Fluorescence Polarization Assay for [^113/115In]XYIMSR-01. Fluorescence polarization (FP) experiments were performed in 21 μL of the assay buffer (12.5 mM Tris-HCl, pH 7.5, 75 mM NaCl) in black flat bottom 384-well microplates (Corning, Inc., New York, N.Y.) The FP reaction employed 100 nM of purified CAIX (R&D systems, Minneapolis, Minn.) and 80 nM FITC-labeled 8 (Wichert, et al., 2015) within the assay buffer. The FP values were measured as mP units using the Victor3 multi-label plate reader equipped with excitation (485 nm) and emission (535 nm) filters (Perkin Elmer, Waltham, Mass.). 100 nM CAIX was incubated with serially diluted (from 1 μM to 61 fM) concentrations of the three targeting molecules, 2, XYIMSR-01, and [^113/115In]XYIMSR-01 for 30 min at room temperature in 384-well plates. 80 nM 8 was added to each well and the reaction was incubated for 30 min at room temperature followed by FP measurement. Experiments were carried out in triplicate and the concentration resulting in 50% response (IC50) was calculated in GraphPad Prism 5 (GraphPad Software, La Jolla, Calif.) using the sigmoidal dose-response regression function.
Background: Fluorescence polarisation rises when a labelled molecule tumbles more slowly, as on binding a larger partner.

Assay [2] deals with T1, CAIX. Description: Competitive fluorescence polarization assay for [Al19F]XYIMSR-04, [63/65Cu]XYIMSR-06 and [175Lu]XYIMSR-01. Also noted: purchased R&D Systems. It is filed as binding. The note with it: 100 nM CAIX, 80 nM FITC-labeled ligand; read-out: IC50, competitive fluorescence polarization (similar method).
Text: as §1
Competitive Fluorescence Polarization Assay for [Al^19F]XYIMSR-04, [^63/65Cu]XYIMSR-06, and [^175Lu]XYIMSR-01. Fluorescence polarization (FP) experiments were performed in 21 μL of the assay buffer (12.5 mM Tris-HCl, pH 7.5, 75 mM NaCl) in transparent flat bottom 384 well Small Volume™ LoBase Microplates (Greiner Bio-One, Frickenhausen Germany). The FP reaction employed 100 nM of purified CAIX (R&D systems, Minneapolis, Minn.) and 80 nM FITC-labeled ligand within the assay buffer. The FP values were measured as mP units using the Safire2™ plate reader (Tecan, Morrisville, N.C.) with excitation at 475 nm and emission at 532 nm emission. 100 nM CAIX was incubated with serially diluted (from 8 μM to 488.2 fM) concentrations of the […] targeting molecules, 2, [Al^19F]XYIMSR-04, [^63/65Cu]XYIMSR-06 and [^175Lu]XYIMSR-01 for 30 min at room temperature in 384 well plates. 80 nM FITC-labeled ligand was added to each well and the reaction was incubated for 30 min at room temperature followed by FP measurements. Experiments were carried out in triplicate and the concentration resulting in 50% response (IC50) was calculated in GraphPad Prism 5 (GraphPad Software, La Jolla, Calif.) using the sigmoidal dose-response regression function.

The IC50 is the midpoint of a concentration-inhibition curve.

The structures appear in SMILES notation.

For the compound `CC(CCC(=O)N[C@@H](CC(=O)N[C@@H](CC(=O)N[C@@H](CCCCn1cc(CCCC(=O)Nc2nnc(S(N)(=O)=O)s2)nn1)C(=O)NCCOCCOCCNC(=O)CN1CCN(CC(=O)O)CCN(CC(=O)O)CCN(CC(=O)O)CC1)C(=O)O)C(=O)O)(c1ccc(O)cc1)c1ccc(O)cc1` [XYIMSR-01, 2,2′,2″-(10-((14S,18S,22S)-18,22-dicarboxy-27,27-bis(4-hydroxyphenyl)-2,13,16,20,24-pentaoxo-14-(4-(4-(4-oxo-4-((5-sulfamoyl-1,3,4-thiadiazol-2-yl)amino)butyl)-1H-1,2,3-triazol-1-yl)butyl)-6,9-dioxa-3,12,15,19,23-pentaazaoctacosyl)-1,4,7,10-tetraazacyclododecane-1,4,7-triyl)triacetic acid], at CAIX [1], the IC50 was 67 nM and the “binding affinity to CAIX (in words)” value is recorded as “high binding affinity”.
In the case of `CC(CCC(=O)N[C@@H](CC(=O)N[C@@H](CC(=O)N[C@@H](CCCCn1cc(CCCC(=O)Nc2nnc(S(N)(=O)=O)s2)nn1)C(=O)NCCOCCOCCNC(=O)CN1CCN2CCN(CC1)CC(=O)[O][Al]([F])[O]C(=O)C2)C(=O)O)C(=O)O)(c1ccc(O)cc1)c1ccc(O)cc1` [[Al^19F]XYIMSR-04, [Al^19F] 2,2′-(7-((14S,18S,22S)-18,22-dicarboxy-27,27-bis(4-hydroxyphenyl)-2,13,16,20,24-pentaoxo-14-(4-(4-(4-oxo-4-((5-sulfamoyl-1,3,4-thiadiazol-2-yl)amino)butyl)-1H-1,2,3-triazol-1-yl)butyl)-6,9-dioxa-3,12,15,19,23-pentaazaoctacosyl)-1,4,7-triazonane-1,4-diyl)diacetic acid], on CAIX [2], the IC50 came to 96.7 ± 3.3 nM.
Still for that read-out and setting: with `CC(CCC(=O)N[C@@H](CC(=O)N[C@@H](CC(=O)N[C@@H](CCCCn1cc(CCCC(=O)Nc2nnc(S(N)(=O)=O)s2)nn1)C(=O)NCCOCCOCCNC(=S)Nc1ccc(CC2CN(CC(=O)O)CCN(CC(=O)O)CCN2CC(=O)O)cc1)C(=O)O)C(=O)O)(c1ccc(O)cc1)c1ccc(O)cc1.[Cu]` (stereo partly drawn) [[^63/65Cu]XYIMSR-06, [^63/65Cu]2,2′,2″-(2-(4-(3-((11S,15S,19S)-15,19-dicarboxy-24,24-bis(4-hydroxyphenyl)-10,13,17,21-tetraoxo-11-(4-(4-(4-oxo-4-((5-sulfamoyl-1,3,4-thiadiazol-2-yl)amino)butyl)-1H-1,2,3-triazol-1-yl)butyl)-3,6-dioxa-9,12,16,20-tetraazapentacosyl)thioureido)benzyl)-1,4,7-triazonane-1,4,7-triyl)triacetic acid] the figure was 156 ± 4.3 nM.
In the case of `CC(CCC(=O)NC(CC(=O)NC(CC(=O)NC(CCCCn1cc(CCCC(=O)Nc2nnc(S(N)(=O)=O)s2)nn1)C(=O)NCCOCCOCCNC(=O)CN1CCN(CC(=O)O)CCN(CC(=O)O)CCN(CC(=O)O)CC1)C(=O)O)C(=O)O)(c1ccc(O)cc1)c1ccc(O)cc1` (stereo not shown) [[^113/115In]XYIMSR-01], at CAIX [1], the IC50 worked out at 108 nM and the “binding affinity to CAIX (in words)” value was “high binding affinity”.
For the compound `CC(CCC(=O)N[C@@H](CC(=O)N[C@@H](CC(=O)N[C@@H](CCCCn1cc(CCCC(=O)Nc2nnc(S(N)(=O)=O)s2)nn1)C(=O)NCCOCCOCCNC(=O)CN1CCN(CC(=O)O)CCN(CC(=O)O)CCN(CC(=O)O)CC1)C(=O)O)C(=O)O)(c1ccc(O)cc1)c1ccc(O)cc1.[Lu]` [[^175Lu]XYIMSR-01, [^175Lu]2,2′,2″-(10-((14S,18S,22S)-18,22-dicarboxy-27,27-bis(4-hydroxyphenyl)-2,13,16,20,24-pentaoxo-14-(4-(4-(4-oxo-4-((5-sulfamoyl-1,3,4-thiadiazol-2-yl)amino)butyl)-1H-1,2,3-triazol-1-yl)butyl)-6,9-dioxa-3,12,15,19,23-pentaazaoctacosyl)-1,4,7,10-tetraazacyclododecane-1,4,7-triyl)triacetic acid], on CAIX [2], the IC50 stood at 122 ± 3.8 nM.
